# Reference: EP3708565A1, “PYRIMIDINYLOXYPHENYLAMIDINES AND THE USE THEREOF AS FUNGICIDES” (Bayer AG, priority 2020, dated 2020)
# Experiments:
# [1] = tested on: Phakospora pachyrhizi; test: in vivo preventive test on Phakospora pachyrhizi (soybean rust); conditions: for pest or weed control at 500 ppm: Glycine max, 288 h, 500 ppm of active ingredient, young soybean plants sprayed, inoculated after 24 hours, evaluated 12 days after the inoculation, read-out: efficacy
# Description: Example: in vivo preventive test on Phakospora pachyrhizi (soybean rust)
# (§1) The active ingredients were made soluble and homogenized in a mixture of Dimethyl sulfoxide/Acetone/ /Tween® 80 and then diluted in water to the desired concentration.
# The young plants of soybean were treated by spraying the active ingredient prepared as described above. Control plants were treated only with an aqueous solution of Acetone/Dimethyl sulfoxide/ […].
# After 24 hours, the plants were contaminated by spraying the leaves with an aqueous suspension of Phakosporapachyrhizi spores. The contaminated soybean plants were incubated for 24 hours at 24°C and at 100% relative humidity and then for 11 days at 24°C and at 70-80% relative humidity.
# The test was evaluated 12 days after the inoculation. 0% means an efficacy which corresponds to that of the control plants while an efficacy of 100% means that no disease was observed.
# [2] = tested on: Puccinia recondita; test: in vivo preventive test on Puccinia recondita (brown rust on wheat); conditions: for pest or weed control at 500 ppm: Puccinia recondita, 264 h, 500 ppm of active ingredient, young wheat plants sprayed, inoculated after 24 hours, evaluated 11 days after the inoculation, read-out: efficacy
# Description: Example: in vivo preventive test on Puccinia recondita (brown rust on wheat)
# as §1
# The young plants of wheat were treated by spraying the active ingredient prepared as described above. Control plants were treated only with an aqueous solution of Acetone/Dimethyl sulfoxide/ Tween® 80.
# After 24 hours, the plants were contaminated by spraying the leaves with an aqueous suspension of Puccinia recondita spores. The contaminated wheat plants were incubated for 24 hours at 20°C and at 100% relative humidity and then for 10 days at 20°C and at 70-80% relative humidity.
# The test was evaluated 11 days after the inoculation. 0% means an efficacy which corresponds to that of the control plants while an efficacy of 100% means that no disease was observed.
# [3] = tested on: Sphaerotheca fuliginea; test: in vivo preventive test on Sphaerotheca fuliginea (powdery mildew on cucurbits); conditions: Podosphaera fuliginea, 192 h; 500 ppm of active ingredient; young gherkin plants sprayed, inoculated after 24 hours, evaluated 8 days after the inoculation; read-out: efficacy
# Description: Example: in vivo preventive test on Sphaerotheca fuliginea (powdery mildew on cucurbits)
# as §1
# The young plants of gherkin were treated by spraying the active ingredient prepared as described above. Control plants were treated only with an aqueous solution of Acetone/Dimethyl sulfoxide/ […].
# After 24 hours, the plants were contaminated by spraying the leaves with an aqueous suspension of Sphaerotheca fuliginea spores. The contaminated gherkin plants were incubated for 8 days at 20°C and at 70-80% relative humidity.
# The test was evaluated 8 days after the inoculation. 0% means an efficacy which corresponds to that of the control plants while an efficacy of 100% means that no disease was observed.
# [4] = LogP measurement by HPLC on reversed phase columns (EEC directive 79/831 Annex V.A8); assay type: physicochemical
# Description: If more than one LogP value is available within the same method, all the values are given and separated by "+".
# Lambda-max-values were determined using UV-spectra from 200 nm to 400 nm and the peak values of the chromatographic signals.
# [5] = reversed phase HPLC column, method [a]: LC-UV, acidic range, 0.1% formic acid in water and acetonitrile as eluent
# [6] = reversed phase HPLC column, method [b]: LC-UV, neutral range, 0.001 molar ammonium acetate solution in water and acetonitrile as eluent
"chromatographic logP [4, 5]","chromatographic logP [4, 6]","chromatographic logP ([4]; method [a]: LC-UV, acidic range, 0.1% formic acid in water and acetonitrile as eluent)","chromatographic logP ([4]; method [b]: LC-UV, neutral range, 0.001 molar ammonium acetate solution in water and acetonitrile as eluent)",SMILES,pest or weed control at 500 ppm [1] [%],pest or weed control at 500 ppm [2] [%],pest or weed control at 500 ppm [3] [%],efficacy ([1]; 500 ppm),efficacy ([2]; 500 ppm)
1.87,,,,"CCC(C)Sc1nccc(Oc2cc(C)c(N=CN(C)CC)cc2C)n1 (racemic) [I.004, N'-[2,5-dimethyl-4-[2-[rac-(2R)-butan-2-yl]sulfanylpyrimidin-4-yl]oxyphenyl]-N-ethyl-N-methylmethanimidamide]",≥ 70,≥ 70,≥ 70,,
1.72,4.95,,,"CCN(C)C=Nc1cc(Br)c(Oc2ccnc(SC(C)(C)C)n2)cc1C [I.001, N'-[5-bromo-4-(2-tert-butylsulfanylpyrimidin-4-yl)oxy-2-methylphenyl]-N-ethyl-N-methyl-methanimidamide]",≥ 70,≥ 70,≥ 70,,
1.9,5.66,,,"CCN(C)C=Nc1cc(C)c(Oc2ccnc(SCCC(C)C)n2)cc1C [I.002, N'-[2,5-dimethyl-4-[2-(3-methylbutylsulfanyl)pyrimidin-4-yl]oxyphenyl]-N-ethyl-N-methyl-methanimidamide]",≥ 70,≥ 70,≥ 70,,
1.63,4.89,,,"CCN(C)C=Nc1cc(C)c(Oc2ccnc(CCC(C)(C)C)n2)cc1C [I.003, N'-[4-[2-(3,3-dimethylbutyl)pyrimidin-4-yl]oxy-2,5-dimethylphenyl]-N-ethyl-N-methylmethan-imidamide]",≥ 70,≥ 70,≥ 70,,
1.58,4.66,,,"CCN(C)C=Nc1cc(Br)c(Oc2ccnc(SCC(F)(F)F)n2)cc1C [I.005, N'-[5-bromo-2-methyl-4-[2-(2,2,2-trifluoroethylsulfanyl)pyrimidin-4-yl]oxyphenyl]-N-ethyl-N-methylmethanimidamide]",≥ 70,≥ 70,≥ 70,,
1.53,4.19,,,"CCN(C)C=Nc1cc(C)c(Oc2ccnc(SCC(F)(F)F)n2)cc1Cl [I.006, N'-[2-chloro-5-methyl-4-[2-(2,2,2-trifluoroethylsulfanyl)pyrimidin-4-yl]oxyphenyl]-N-ethyl-N-methylmethanimidamide]",≥ 70,≥ 70,≥ 70,,
1.81,5.25,,,"CCN(C)C=Nc1cc(Br)c(Oc2ccnc(SCC(C)C)n2)cc1C [I.007, N'-[5-bromo-2-methyl-4-[2-(2-methylpropylsulfanyl)pyrimidin-4-yl]oxyphenyl]-N-ethyl-N-methylmethanimidamide]",≥ 70,≥ 70,≥ 70,,
1.6,,,,"CCN(C)C=Nc1cc(C)c(Oc2ccnc(Sc3ccccc3F)n2)cc1C [I.008, N-ethyl-N'-[4-[2-(2-fluorophenyl)sulfanylpyrimidin-4-yl]oxy-2,5-dimethylphenyl]-N-methyl-methanimidamide]",≥ 70,≥ 70,≥ 70,,
1.66,,,,"CCN(C)C=Nc1cc(C)c(Oc2ccnc(Sc3cccc(F)c3)n2)cc1C [I.009, N-ethyl-N'-[4-[2-(3-fluorophenyl)sulfanylpyrimidin-4-yl]oxy-2,5-dimethylphenyl]-N-methyl-methanimidamide]",≥ 70,≥ 70,≥ 70,,
1.6,,,,"CCN(C)C=Nc1cc(C)c(Oc2ccnc(Sc3ccc(F)cc3)n2)cc1C [I.010, N-ethyl-N'-[4-[2-(4-fluorophenyl)sulfanylpyrimidin-4-yl]oxy-2,5-dimethylphenyl]-N-methyl-methanimidamide]",≥ 70,≥ 70,≥ 70,,
1.86,,,,"CCN(C)C=Nc1cc(C)c(Oc2ccnc(SC3CCCCC3)n2)cc1C [I.011, N'-[4-(2-cyclohexylsulfanylpyrimidin-4-yl)oxy-2,5-dimethylphenyl]-N-ethyl-N-methylmethan-imidamide]",≥ 70,≥ 70,≥ 70,,
1.61,5.06,,,"CCN(C)C=Nc1cc(C)c(Oc2ccnc(SCC(C)C)n2)cc1C [I.026, N'-[2,5-dimethyl-4-[2-(2-methylpropylsulfanyl)pyrimidin-4-yl]oxyphenyl]-N-ethyl-N-methyl-methanimidamide]",≥ 70,≥ 70,,,
1.46,4.56,,,"CCN(C)C=Nc1cc(C)c(Oc2ccnc(C(C)(C)C)n2)cc1C [I.032, N'-[4-(2-tert-butylpyrimidin-4-yl)oxy-2,5-dimethylphenyl]-N-ethyl-N-methylmethanimidamide]",≥ 70,≥ 70,,,
1.93,,,,"CCN(C)C=Nc1cc(C(F)(F)F)c(Oc2ccnc(SCC(C)C)n2)cc1C [I.035, N-ethyl-N-methyl-N'-[2-methyl-4-[2-(2-methylpropylsulfanyl)pyrimidin-4-yl]oxy-5-(trifluoromethyl)phenyl]methanimidamide]",≥ 70,≥ 70,,,
,,1.58,4.93,"CCN(C)C=Nc1cc(Br)c(Oc2ccnc(C(C)(C)C)n2)cc1C [I.038, N'-[5-bromo-4-(2-tert-butylpyrimidin-4-yl)oxy-2-methylphenyl]-N-ethyl-N-methylmethanimid-amide]",,,,at least 70%,at least 70%
1.52,4.35,,,"CCN(C)C=Nc1cc(C)c(Oc2ccnc(SC(C)C)n2)cc1Cl [I.046, N'-[2-chloro-5-methyl-4-(2-propan-2-ylsulfanylpyrimidin-4-yl)oxyphenyl]-N-ethyl-N-methyl-methanimidamide]",,≥ 70,,,
1.13,,,,"CCN(C)C=Nc1cc(C)c(Oc2ccnc(Sc3ccncc3)n2)cc1C [I.047, N'-[2,5-dimethyl-4-(2-pyridin-4-ylsulfanylpyrimidin-4-yl)oxyphenyl]-N-ethyl-N-methylmethan-imidamide]",,,≥ 70,,
1.72,4.77,,,"CCN(C)C=Nc1cc(C)c(Oc2ccnc(SCC(C)C)n2)cc1Cl [I.048, N'-[2-chloro-5-methyl-4-[2-(2-methylpropylsulfanyl)pyrimidin-4-yl]oxyphenyl]-N-ethyl-N-methylmethanimidamide]",,≥ 70,≥ 70,,
1.6,4.5,,,"CCN(C)C=Nc1cc(C#N)c(Oc2ccnc(SCC(C)C)n2)cc1C [I.049, N'-[5-cyano-2-methyl-4-[2-(2-methylpropylsulfanyl)pyrimidin-4-yl]oxyphenyl]-N-ethyl-N-methylmethanimidamide]",,≥ 70,≥ 70,,
1.44,4.16,,,"CCCSc1nccc(Oc2cc(C)c(N=CN(C)CC)cc2C#N)n1 [I.050, N'-[5-cyano-2-methyl-4-(2-propylsulfanylpyrimidin-4-yl)oxyphenyl]-N-ethyl-N-methylmethan-imidamide]",,≥ 70,≥ 70,,
1.9,,,,"CCN(C)C=Nc1cc(C(F)F)c(Oc2nc(SCC(C)C)ncc2C)cc1C [I.051, N'-[5-(difluoromethyl)-2-methyl-4-[5-methyl-2-(2-methylpropylsulfanyl)pyrimidin-4-yl]oxyphenyl]-N-ethyl-N-methylmethanimidamide]",,,≥ 70,,
